Test results: patent US9211336B2, “Antioxidant stabilized pharmaceutical formulations comprising antineoplastic compounds” (Hikma Pharmaceuticals, priority 2013, dated 2015)

Legend:
[1] = only stable in acidic conditions; cited from earlier work
[2] = solid powder, 1 month 40° C./75% RH; weight percentage
Description: In the tested formulations, the weight percentages of certain degradation products were measured.

[3] = Effect of controlled preparation temperature on dissolution of temozolomide
[4] = Stability study, effect of pH: temozolomide solutions in various buffers; assay type: physicochemical

Cn1nnc2c(C(N)=O)ncn2c1=O [Temozolomide, 3,4-dihydro-3-methyl-4-oxoimidazo[5,1-d]-as-tetrazine-8-carboxamide]
pH at which stable [1]: less than 5 | Dacarbazine-related compound A [2]: 8.4% | Max. Unknown [2]: 0.22% | Observation (dissolution of temozolomide) ([3]; Prep Temp 10 ° C., About 3 hrs): Temozolomide did not dissolve | Observation (dissolution of temozolomide) ([3]; Prep Temp 15 ° C., About 2 hrs): Temozolomide did not dissolve | Observation (dissolution of temozolomide) ([3]; Prep Temp 18 ° C.): Temozolomide dissolved | Time (to dissolve) ([3]; Prep Temp 18 ° C.): About 0.5 to 0.75 hrs | Observation (dissolution of temozolomide) ([3]; Prep Temp 19 ° C.): Temozolomide dissolved | Time (to dissolve) ([3]; Prep Temp 19 ° C.): About 0.5 to 0.75 hrs | Observation (dissolution of temozolomide) ([3]; Prep Temp 20 ° C.): Temozolomide dissolved | Time (to dissolve) ([3]; Prep Temp 20 ° C.): About 0.5 to 0.75 hrs | Observation (dissolution of temozolomide) ([3]; Prep Temp 24 ° C.): Temozolomide dissolved | Time (to dissolve) ([3]; Prep Temp 24 ° C.): About 0.5 to 0.75 hrs | Observation (dissolution of temozolomide) ([3]; Prep Temp 25 ° C.): Temozolomide dissolved | Time (to dissolve) ([3]; Prep Temp 25 ° C.): About 0.5 to 0.75 hrs | Stability after 1 hr (temozolomide as % of amount originally added) ([4]; 0.1N HCl pH = 1.1): 101.7% | Stability after 5 hr ([4]; 0.1N HCl pH = 1.1): 100.2% | Stability after 6 hr ([4]; 0.1N HCl pH = 1.1): 99.8% | Stability after 1 hr (temozolomide as % of amount originally added) ([4]; Acetate Buffer pH = 4.5): 99.2% | Stability after 5 hr ([4]; Acetate Buffer pH = 4.5): 98.1% | Stability after 6 hr ([4]; Acetate Buffer pH = 4.5): 98.2% | Stability after 1 hr (temozolomide as % of amount originally added) ([4]; Hydrochloride Buffer pH = 2.2): 99.1% | Stability after 5 hr ([4]; Hydrochloride Buffer pH = 2.2): 98.6% | Stability after 6 hr ([4]; Hydrochloride Buffer pH = 2.2): 99.0% | Stability after 5 min ([4]; Phosphate Buffer pH = 6.8): 100.1% | Stability after 10 min ([4]; Phosphate Buffer pH = 6.8): 99.8% | Stability after 15 min ([4]; Phosphate Buffer pH = 6.8): 99.0% | Stability after 30 min ([4]; Phosphate Buffer pH = 6.8): 98.0% | Stability after 5 min ([4]; Phosphate Buffer pH = 7.5): 99.4% | Stability after 10 min ([4]; Phosphate Buffer pH = 7.5): 99.0% | Stability after 15 min ([4]; Phosphate Buffer pH = 7.5): 97.8% | Stability after 30 min ([4]; Phosphate Buffer pH = 7.5): 90.5% | Stability after 5 min ([4]; Water): 99.9% | Stability after 10 min ([4]; Water): 99.6% | Stability after 15 min ([4]; Water): 98.8% | Stability after 30 min ([4]; Water): 97.6%
